Reference: ChEMBL document CHEMBL1139605, “Novel ketal ligands for the glucocorticoid receptor: in vitro and in vivo activity” (Bioorg Med Chem Lett, 2005)
pEC50, pIC50: −log10 of the molar value.

Columns and labels:
Mus musculus = species: Mus musculus; experiment: Effective concentration required for inhibition of interleukin-6 in mouse thioglycolate-elicited peritoneal exudate cell line using 57% radiolabeled Dexamethasone; format: functional
A549 = experiment: Effective concentration for inhibition of interleukin-6 in human A549 lung carcinoma cell line using 47% radiolabeled Dexamethasone; format: functional, cell-based
Glucocorticoid receptor = target: T1, Glucocorticoid receptor (Homo sapiens, UniProt P04150); experiment: Inhibition of human glucocorticoid receptor alpha isoform
T1 sequence (P04150 whole entry): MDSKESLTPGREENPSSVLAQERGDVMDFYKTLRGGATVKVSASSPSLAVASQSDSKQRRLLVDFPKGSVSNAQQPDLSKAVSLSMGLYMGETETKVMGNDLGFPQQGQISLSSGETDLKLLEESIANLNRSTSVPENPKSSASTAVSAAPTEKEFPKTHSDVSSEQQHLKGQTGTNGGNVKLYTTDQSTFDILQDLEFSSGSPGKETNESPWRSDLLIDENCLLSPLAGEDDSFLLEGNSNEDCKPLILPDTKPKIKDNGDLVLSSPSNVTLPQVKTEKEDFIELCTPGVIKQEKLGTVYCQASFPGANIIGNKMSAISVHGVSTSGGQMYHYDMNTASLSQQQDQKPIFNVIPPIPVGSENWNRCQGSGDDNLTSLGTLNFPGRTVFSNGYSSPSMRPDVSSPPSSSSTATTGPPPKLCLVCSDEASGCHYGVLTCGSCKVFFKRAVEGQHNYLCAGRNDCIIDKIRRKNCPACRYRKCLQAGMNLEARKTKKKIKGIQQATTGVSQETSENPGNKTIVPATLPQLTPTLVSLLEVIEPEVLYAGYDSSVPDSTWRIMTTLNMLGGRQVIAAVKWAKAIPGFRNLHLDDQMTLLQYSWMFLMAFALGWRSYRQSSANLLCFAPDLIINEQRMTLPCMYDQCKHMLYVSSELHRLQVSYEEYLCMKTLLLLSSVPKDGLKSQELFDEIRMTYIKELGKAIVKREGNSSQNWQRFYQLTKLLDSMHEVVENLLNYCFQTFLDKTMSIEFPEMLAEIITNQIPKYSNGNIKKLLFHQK

Structure (SMILES): C=C[C@H]1CO[C@]2(CCC3=Cc4c(cnn4-c4ccc(F)cc4)C[C@@]32C)O1
- pEC50 (Mus musculus): 6.74
- pEC50 (A549): 7.60
- pIC50 (Glucocorticoid receptor): 8.25
